The target of one test is Mcl-1 protein (UniProtKB primary accession number: Q07820) (Homo sapiens, UniProt Q07820). The test is described as follows: Inhibition of Mcl-1 by fluorescence polarisation, Method 1. The test is classed as binding. Conditions: for IC50: read-out: IC50 (M) Mcl-1 FP; for percentage fluorescence polarisation inhibition, Mcl-1 FP: partial inhibitors, @ 10 uM test compound. A digest of the protocol: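 Fluorescence polarisation competition with an 11-point compound dilution series (final DMSO 5%). Mcl-1 protein at 5 nM and fluorescein-labelled ligand at 1 nM (final) in 10 mM HEPES, 150 mM NaCl, 0.05% Tween 20, pH 7.4.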
Mcl-1 protein, sequence (Q07820 whole entry): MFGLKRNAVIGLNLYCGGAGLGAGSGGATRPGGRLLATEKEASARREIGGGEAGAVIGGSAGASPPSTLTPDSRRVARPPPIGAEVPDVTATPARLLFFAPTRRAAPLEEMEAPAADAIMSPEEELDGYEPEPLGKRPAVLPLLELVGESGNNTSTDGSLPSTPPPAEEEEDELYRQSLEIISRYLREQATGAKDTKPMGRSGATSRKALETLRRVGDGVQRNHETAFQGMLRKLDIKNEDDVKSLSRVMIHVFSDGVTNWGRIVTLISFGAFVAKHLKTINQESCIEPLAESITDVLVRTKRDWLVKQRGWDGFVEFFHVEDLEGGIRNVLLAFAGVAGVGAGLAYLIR
(In general: In fluorescence polarisation assays a small probe gives low polarisation when free and higher when bound to something large.)

Test [1] concerns H929 multiple myeloma tumour line. The test is described as follows: In vitro cytotoxicity, Microculture Tetrazolium Assay. The test is classed as cell-based. The note with it: H929 cells, 48 hours exposure, read-out: IC50 (μM) MTT H929. How it is done:
The cytotoxicity studies were carried out on the H929 multiple myeloma tumour line.
The cells are distributed onto microplates and exposed to the test compounds for 48 hours.

The subject of test [2] is AMO-1 multiple myeloma cells. The test is described as follows: Quantification of the cleaved form of PARP in vivo (MSD ELISA, tumour lysates). Also on record: species or system mice (SCID strain). Conditions: activation factor: cleaved PARP in treated mice / control mice, AMO-1 xenograft in SCID mice, intraveinous or oral routes. How it is done: The ability of the compounds of the invention to induce apoptosis, by measuring cleaved PARP levels, is evaluated in a xenograft model of AMO-1 multiple myeloma cells. 1.10^7 AMO-1 cells are grafted sub-cutaneously into immunosuppressed mice (SCID strain). 12 to 14 days after the graft, the animals are treated by intraveinous or oral routes with the various compounds. After treatment, the tumour masses are recovered and lysed, and the cleaved form of PARP is quantified in the tumour lysates.
The quantification is carried out using the “Meso Scale Discovery (MSD) ELISA platform” test, which specifically assays the cleaved form of PARP. It is expressed in the form of an activation factor corresponding to the ratio between the quantity of cleaved PARP in the treated mice divided by the quantity of cleaved PARP in the control mice.

The mark [3] stands for this setting: fluorescence polarisation test, Method 2 values are underlined in the patent (underlining not visible here).
The mark [4] stands for this setting: Homo sapiens, NCI-H929, 48 h, MTT.
Setting [5] is: fluorescence polarisation, Method 1, or Method 2.
Setting [6] is: fluorescence polarisation test, Method 1, or Method 2 where the value is underlined (underlining not visible).
Where [7] appears, read: Homo sapiens, NCI-H929, 48 h, cell viability.

By IC50 is commonly meant the concentration needed to halve the response being measured.

The structures appear in SMILES notation. Like-named read-outs stand apart in the source and are kept apart here.

For the molecule `CCCc1nccc(COc2ccccc2CC(Oc2ncnc3sc(-c4ccc(F)cc4)c(-c4ccc(OCCN5CCN(C)CC5)c(Cl)c4C)c23)C(=O)O)n1` [Example 41, (2R)-2-{[(5Sa)-5-{3-chloro-2-methyl-4-[2-(4-methylpiperazin-1-yl)ethoxy]phenyl}-6-(4-fluorophenyl)thieno[2,3-d]pyrimidin-4-yl]oxy}-3-{2-[(2-propylpyrimidin-4-yl)methoxy]phenyl}propanoic acid], the IC50 on Mcl-1 protein (setting [3]) came out at 2.9e-09 M; in test [1] (setting [4]), 0.007 µM. In test [2], this molecule showed a PARP fold of 288.1 fold.

As to `COCc1nccc(COc2ccccc2CC(Oc2ncnc3sc(-c4ccc(F)cc4)c(-c4ccc(OCCN5CCN(C)CC5)c(Cl)c4C)c23)C(=O)O)n1` [Example 45, (2R)-2-{[(5Sa)-5-{3-chloro-2-methyl-4-[2-(4-methylpiperazin-1-yl)ethoxy]phenyl}-6-(4-fluorophenyl)thieno[2,3-d]pyrimidin-4-yl]oxy}-3-(2-{[2-(methoxymethyl)pyrimidin-4-yl]methoxy}phenyl)propanoic acid], the IC50 on Mcl-1 protein (setting [3]) was determined as 6.7e-09 M; in test [1] (setting [4]), 0.009 µM. Also, the PARP fold in test [2] was determined as 194.3 fold.

Turning to `CCOCc1nccc(COc2ccccc2C[C@@H](Oc2ncnc3sc(-c4ccc(F)cc4)c(-c4ccc(OCCN5CCN(C)CC5)c(Cl)c4C)c23)C(=O)O)n1` [Example 47, (2R)-2-{[(5Sa)-5-{3-chloro-2-methyl-4-[2-(4-methylpiperazin-1-yl)ethoxy]phenyl}-6-(4-fluorophenyl)thieno[2,3-d]pyrimidin-4-yl]oxy}-3-(2-{[2-(ethoxymethyl)pyrimidin-4-yl]methoxy}phenyl)propanoic acid], the figures for the IC50 (on Mcl-1 protein (setting [3]); in test [1] (MTT)) were 7.8e-09 M and 0.005 µM, respectively. Besides, the PARP fold in test [2] is recorded as 101.1 fold.

`Cc1c(-c2c(-c3ccc(F)cc3)sc3ncnc(OC(Cc4ccccc4OCc4ccnc(-n5cccn5)n4)C(=O)O)c23)ccc(OCCN2CCN(C)CC2)c1Cl` [Example 49, (2R)-2-{[(5Sa)-5-{3-chloro-2-methyl-4-[2-(4-methylpiperazin-1-yl)ethoxy]phenyl}-6-(4-fluorophenyl)thieno[2,3-d]pyrimidin-4-yl]oxy}-3-(2-{[2-(1H-pyrazol-1-yl)pyrimidin-4-yl]methoxy}phenyl)propanoic acid]: the IC50 at Mcl-1 protein (setting [3]) came to 2.5e-09 M; in test [1] (setting [4]), 0.012 µM. The molecule further had a PARP fold in test [2] of 180.5 fold.

As for `COCCNc1nccc(COc2ccccc2CC(Oc2ncnc3sc(-c4ccc(F)cc4)c(-c4ccc(OCCN5CCN(C)CC5)c(Cl)c4C)c23)C(=O)O)n1` [Example 53, (2R)-2-{[(5Sa)-5-{3-chloro-2-methyl-4-[2-(4-methylpiperazin-1-yl)ethoxy]phenyl}-6-(4-fluorophenyl)thieno[2,3-d]pyrimidin-4-yl]oxy}-3-[2-({2-[(2-methoxyethyl)amino]pyrimidin-4-yl}methoxy)phenyl]propanoic acid], the IC50 turned out to be 3.4e-09 M at Mcl-1 protein (setting [3]) and 0.015 µM in test [1] (setting [4]). Further, the PARP fold in test [2] is 178.7 fold.

Turning to `Cc1c(-c2c(-c3ccc(F)cc3)sc3ncnc(OC(Cc4ccccc4OCc4ccnc(OC(C)C)n4)C(=O)O)c23)ccc(OCCN2CCN(C)CC2)c1Cl` [Example 55, (2R)-2-{[(5Sa)-5-{3-chloro-2-methyl-4-[2-(4-methylpiperazin-1-yl)ethoxy]phenyl}-6-(4-fluorophenyl)thieno[2,3-d]pyrimidin-4-yl]oxy}-3-(2-{[2-(propan-2-yloxy)pyrimidin-4-yl]methoxy}phenyl)propanoic acid], the IC50 on Mcl-1 protein (setting [3]) came to 5.8e-09 M; in test [1] (setting [4]), 0.007 µM. Further, the PARP fold in test [2] is listed as 188.4 fold.

On to `CCOc1nccc(COc2ccccc2CC(Oc2ncnc3sc(-c4ccc(F)cc4)c(-c4ccc(OCCN5CCN(C)CC5)c(Cl)c4C)c23)C(=O)O)n1` [Example 57, (2R)-2-{[(5Sa)-5-{3-chloro-2-methyl-4-[2-(4-methylpiperazin-1-yl)ethoxy]phenyl}-6-(4-fluorophenyl)thieno[2,3-d]pyrimidin-4-yl]oxy}-3-{2-[(2-ethoxypyrimidin-4-yl)methoxy]phenyl}propanoic acid], for which the IC50 came out at 5e-09 M at Mcl-1 protein (setting [3]) and 0.008 µM in test [1] (setting [4]). The molecule also displayed a PARP fold in test [2] of 198.3 fold.

For `CCOC(=O)[C@@H](Cc1ccccc1OCc1ccnn1C(C)C)Oc1ncnc2sc(-c3ccc(F)o3)c(-c3ccc(OCCN4CCN(C)CC4)c(Cl)c3C)c12` [Example 623, ethyl (2R)-2-{[(5Sa)-5-{3-chloro-2-methyl-4-[2-(4-methylpiperazin-1-yl)ethoxy]phenyl}-6-(5-fluorofuran-2-yl)thieno[2,3-d]pyrimidin-4-yl]oxy}-3-(2-{[1-(propan-2-yl)-1H-pyrazol-5-yl]methoxy}phenyl)propanoate], the “percentage fluorescence polarisation inhibition, Mcl-1 FP” value on Mcl-1 protein is listed as 67.8% @ 10 uM. In test [2], this molecule showed a PARP fold of 441.5 fold.

Regarding `CCOC(=O)[C@@H](Cc1ccccc1OCc1ccnc(OCC(F)(F)F)n1)Oc1ncnc2sc(-c3ccc(F)cc3)c(-c3ccc(OCCN4CCN(C)CC4)c(Cl)c3C)c12` [Example 638, ethyl (2R)-2-{[(5Sa)-5-{3-chloro-2-methyl-4-[2-(4-methylpiperazin-1-yl)ethoxy]phenyl}-6-(4-fluorophenyl)thieno[2,3-d]pyrimidin-4-yl]oxy}-3-(2-{[2-(2,2,2-trifluoroethoxy)pyrimidin-4-yl]methoxy}phenyl)propanoate], at Mcl-1 protein, the “percentage fluorescence polarisation inhibition, Mcl-1 FP” value is reported as 34.5% @ 10 uM. The molecule also displayed a PARP fold in test [2] of 136.7 fold.

As to `CCOC(=O)[C@@H](Cc1ccccc1OCc1ccnc(-c2ccccc2OC)n1)Oc1ncnc2sc(-c3ccc(F)cc3)c(-c3ccc(OCCN4CCN(C)CC4)c(Cl)c3C)c12` [Example 639, ethyl (2R)-2-{[(5Sa)-5-{3-chloro-2-methyl-4-[2-(4-methylpiperazin-1-yl)ethoxy]phenyl}-6-(4-fluorophenyl)thieno[2,3-d]pyrimidin-4-yl]oxy}-3-(2-{[2-(2-methoxyphenyl)pyrimidin-4-yl]methoxy}phenyl)propanoate], the “percentage fluorescence polarisation inhibition, Mcl-1 FP” value on Mcl-1 protein was determined as 66.25% @ 10 uM. This molecule came in with a PARP fold in test [2] of 195.7 fold.

On to `CCOC(=O)C(Cc1ccccc1OCc1ccnc(-c2ccccc2OC)n1)Oc1ncnc2sc(-c3ccc(F)cc3)c(-c3ccc(OCCN(C)C)c(Cl)c3C)c12` [Example 756, Ethyl (2R)-2-{[(5Sa)-5-{3-chloro-4-[2-(dimethylamino)ethoxy]-2-methylphenyl}-6-(4-fluorophenyl)thieno[2,3-d]pyrimidin-4-yl]oxy}-3-(2-{[2-(2-methoxyphenyl)pyrimidin-4-yl]methoxy}phenyl)propanoate], for which the IC50 at Mcl-1 protein (setting [5]) was 6.89e-07 M. Besides, the PARP fold in test [2] is 117 fold.

For `CCOC(=O)C(Cc1ccccc1OCc1ccnc(-c2ccccc2F)n1)Oc1ncnc2sc(-c3ccc(F)cc3)c(-c3ccc(OCCN4CCN(CC)CC4)c(Cl)c3C)c12` [Example 790, ethyl (2R)-2-{[(5Sa)-5-{3-chloro-4-[2-(4-ethylpiperazin-1-yl)ethoxy]-2-methylphenyl}-6-(4-fluorophenyl)thieno[2,3-d]pyrimidin-4-yl]oxy}-3-(2-{[2-(2-fluorophenyl)pyrimidin-4-yl]methoxy}phenyl)propanoate], the IC50 at Mcl-1 protein (setting [5]) was found to be 1.91e-06 M. The same molecule showed a PARP fold in test [2] of 282.9 fold.

Turning to `CCOC(=O)C(Cc1ccccc1OCc1ccnn1C(C)(C)C)Oc1ncnc2sc(-c3ccc(F)cc3)c(-c3ccc(OCCN(C)C)c(Cl)c3C)c12` [Example 794, ethyl (2R)-3-{2-[(1-tert-butyl-1H-pyrazol-5-yl)methoxy]phenyl}-2-{[(5Sa)-5-{3-chloro-4-[2-(dimethylamino)ethoxy]-2-methylphenyl}-6-(4-fluorophenyl)thieno[2,3-d]pyrimidin-4-yl]oxy}propanoate], the IC50 at Mcl-1 protein (setting [6]) stood at 5.35e-06 M. In test [2], this molecule gave a PARP fold of 125.6 fold.

In the case of `COc1ccccc1-c1nccc(COc2ccccc2CC(Oc2ncnc3sc(-c4cccc(F)c4)c(-c4ccc(OCCN5CCN(C)CC5)c(Cl)c4C)c23)C(=O)O)n1` [Example 836, (2R)-2-{[(5Sa)-5-{3-chloro-2-methyl-4-[2-(4-methylpiperazin-1-yl)ethoxy]phenyl}-6-(3-fluorophenyl)thieno[2,3-d]pyrimidin-4-yl]oxy}-3-(2-{[2-(2-methoxyphenyl)pyrimidin-4-yl]methoxy}phenyl)propanoic acid], the IC50 was determined as 2.8e-09 M on Mcl-1 protein (setting [6]) and 0.002 µM in test [1] (setting [7]).

`COc1ccccc1-c1nccc(COc2ccccc2C[C@@H](Oc2ncnc3sc(-c4ccc(F)cc4)c(-c4ccc(OCCN5CCN(C)CC5)c(Cl)c4OC)c23)C(=O)O)n1` [Example 837, (2R)-2-{[5-{3-chloro-2-methoxy-4-[2-(4-methylpiperazin-1-yl)ethoxy]phenyl}-6-(4-fluorophenyl)thieno[2,3-d]pyrimidin-4-yl]oxy}-3-(2-{[2-(2-methoxyphenyl)pyrimidin-4-yl]methoxy}phenyl)propanoic acid]: the IC50 on Mcl-1 protein (setting [6]) came out at 2.35e-09 M; in test [1] (setting [7]), 0.003 µM.

For the origin of these results see patent publication US9670227B2, “Thienopyrimidine derivatives, a process for their preparation and pharmaceutical compositions containing them” (LES LABORATOIRES SERVIER, priority 2013, dated 2017).
